Reference: PubChem BioAssay AID330 (DTP/NCI, 2004)
Where “and” joins values, the source holds several entries; their conditions need not be identical. Equal entries are not always repeated. Inconclusive results and toxic doses are left out. The calls were made as follows: active = survival T/C of 150% or more; inactive = T/C below 125% in these data.

System: P388 leukemia ip, CD2F1 mice, survival T/C
Experiment: NCI In Vivo Anticancer Drug Screen. Data for tumor model P388 Leukemia (intraperitoneal) in CD2F1 (CDF1) mice
Details: endpoint: median survival time, higher = longer survival
How it was run: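 Mice carrying the transplanted tumor received test compound or vehicle. Survival was recorded in each group, and the value is the treated-group measurement divided by that of the vehicle-treated control group.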

[1] = dose: 60.0 mg/kg/injection, schedule: Q01DX005 (ip), vehicle: Klucel (hydroxypropylcellulose) (HPC)
[2] = dose: 120.0 mg/kg/injection, schedule: Q01DX005 (ip), vehicle: Klucel (hydroxypropylcellulose) (HPC)
[3] = dose: 240.0 mg/kg/injection, schedule: Q01DX005 (ip), vehicle: Klucel (hydroxypropylcellulose) (HPC)
[4] = dose: 50.0 mg/kg/injection, schedule: Q01DX009 (ip), vehicle: saline
[5] = dose: 100.0 mg/kg/injection, schedule: Q01DX009 (ip), vehicle: saline
[6] = dose: 200.0 mg/kg/injection, schedule: Q01DX009 (ip), vehicle: saline
[7] = dose: 50.0 mg/kg/injection, schedule: Q01DX009 (ip), vehicle: saline with Tween-80
[8] = dose: 100.0 mg/kg/injection, schedule: Q01DX009 (ip), vehicle: saline with Tween-80
[9] = dose: 200.0 mg/kg/injection, schedule: Q01DX009 (ip), vehicle: saline with Tween-80
[10] = dose: 12.5 mg/kg/injection, schedule: Q01DX009 (ip), vehicle: Klucel (hydroxypropylcellulose) (HPC)
[11] = dose: 25.0 mg/kg/injection, schedule: Q01DX009 (ip), vehicle: Klucel (hydroxypropylcellulose) (HPC)
[12] = dose: 50.0 mg/kg/injection, schedule: Q01DX009 (ip), vehicle: Klucel (hydroxypropylcellulose) (HPC)
[13] = dose: 25.0 mg/kg/injection, schedule: Q01DX005 (ip), vehicle: Klucel (hydroxypropylcellulose) (HPC)
[14] = dose: 50.0 mg/kg/injection, schedule: Q01DX005 (ip), vehicle: Klucel (hydroxypropylcellulose) (HPC)
[15] = dose: 60.0 mg/kg/injection, schedule: Q01DX005 (ip), vehicle: saline with Tween-80
[16] = dose: 120.0 mg/kg/injection, schedule: Q01DX005 (ip), vehicle: saline with Tween-80

Measured: T/C

Cc1ccc(N=NC2Sc3nc4ccccc4n3C2=O)cc1 (stereo unspecified)
inactive: [1] 101 % of control | [2] 97 % of control | [3] 88 % of control

CC1=CC2OC3CC(OC(=O)/C=C/C=C/C(O)C(C)O)C(C)(C2(C)CC1)C31CO1 (stereo unspecified)
inactive: dose: 0.16 mg/kg/injection, schedule: Q01DX009 (ip), vehicle: saline + alcohol 109 % of control | dose: 0.31 mg/kg/injection, schedule: Q01DX009 (ip), vehicle: saline + alcohol 113 % of control | dose: 0.62 mg/kg/injection, schedule: Q01DX009 (ip), vehicle: saline + alcohol 109 % of control | dose: 1.25 mg/kg/injection, schedule: Q01DX009 (ip), vehicle: saline + alcohol 109 % of control | dose: 2.5 mg/kg/injection, schedule: Q01DX009 (ip), vehicle: saline + alcohol 120 % of control | dose: 5.0 mg/kg/injection, schedule: Q01DX009 (ip), vehicle: saline + alcohol 123 % of control

CCCC(CCC)=NCCN=C(CCC)CCC
inactive: [4] 100 % of control | dose: 50.0 mg/kg/injection, schedule: Q04DX003 (ip), vehicle: saline 95 % of control | [5] 100 % of control | dose: 100.0 mg/kg/injection, schedule: Q04DX003 (ip), vehicle: saline 95 % of control | [6] 104 % of control | dose: 200.0 mg/kg/injection, schedule: Q04DX003 (ip), vehicle: saline 91 % of control

COc1cc(C)c2c(=O)c3c(oc2c1)C(=O)c1c(O)c(OC)cc(O)c1C3=O
inactive: dose: 12.5 mg/kg/injection, schedule: Q01DX009 (ip), vehicle: saline with Tween-80 115 % of control | dose: 25.0 mg/kg/injection, schedule: Q01DX009 (ip), vehicle: saline with Tween-80 108 % of control | [7] 114 % of control | [8] 115 % of control | [9] 103 % of control

O=C1C(Br)=C(Br)C(=O)c2c(Cl)ccc(O)c21
inactive: [10] 101 % of control | [11] 98 % of control | [12] 101 % of control and 105 % of control | dose: 100.0 mg/kg/injection, schedule: Q01DX009 (ip), vehicle: Klucel (hydroxypropylcellulose) (HPC) 88 % of control | dose: 200.0 mg/kg/injection, schedule: Q01DX009 (ip), vehicle: Klucel (hydroxypropylcellulose) (HPC) 100 % of control

N#CC(CCCC(C#N)(c1ccccc1)c1ccccc1)(c1ccccc1)c1ccccc1
inactive: dose: 100.0 mg/kg/injection, schedule: Q01DX001 (ip), vehicle: Klucel (hydroxypropylcellulose) (HPC) 100 % of control | dose: 200.0 mg/kg/injection, schedule: Q01DX001 (ip), vehicle: Klucel (hydroxypropylcellulose) (HPC) 101 % of control | dose: 400.0 mg/kg/injection, schedule: Q01DX001 (ip), vehicle: Klucel (hydroxypropylcellulose) (HPC) 105 % of control

CCN(CC)Cc1cc(N=Nc2cc(OC)c(N=Nc3ccc([N+](=O)[O-])cc3)cc2OC)c2cccnc2c1O
inactive: [13] 107 % of control | [14] 106 % of control and 107 % of control and 114 % of control | dose: 100.0 mg/kg/injection, schedule: Q01DX005 (ip), vehicle: Klucel (hydroxypropylcellulose) (HPC) 112 % of control and 117 % of control and 123 % of control | dose: 200.0 mg/kg/injection, schedule: Q01DX005 (ip), vehicle: Klucel (hydroxypropylcellulose) (HPC) 112 % of control and 117 % of control | dose: 400.0 mg/kg/injection, schedule: Q01DX005 (ip), vehicle: Klucel (hydroxypropylcellulose) (HPC) 116 % of control

CCC1COC(CC)N1 (stereo unspecified)
inactive: dose: 50.0 mg/kg/injection, schedule: Q01DX005 (ip), vehicle: saline with Tween-80 113 % of control and 95 % of control | dose: 100.0 mg/kg/injection, schedule: Q01DX005 (ip), vehicle: saline with Tween-80 103 % of control

C#CCC(C(C)=O)C(C)=O.[C-]#[O+].[C-]#[O+].[C-]#[O+].[C-]#[O+].[C-]#[O+].[C-]#[O+].[Co].[Co]
inactive: dose: 12.5 mg/kg/injection, schedule: Q01DX005 (ip), vehicle: Klucel (hydroxypropylcellulose) (HPC) 108 % of control | [13] 102 % of control | [14] 108 % of control and 95 % of control

O=C(CCCCO)c1nc2ccccc2s1
inactive: [1] 98 % of control | [2] 102 % of control | [3] 95 % of control

COc1c2ccoc2nc2c(OC)c3c(cc12)OCO3
inactive: dose: 6.25 mg/kg/injection, schedule: Q01DX009 (ip), vehicle: Klucel (hydroxypropylcellulose) (HPC) 105 % of control | [10] 99 % of control | [11] 94 % of control | [12] 94 % of control

COc1cc2c(cc1O)CCCC(C)(C)C2=O
inactive: [8] 95 % of control | [9] 96 % of control

O=C(/C=C\c1ccncc1)c1ccc([N+](=O)[O-])cc1
inactive: dose: 25.0 mg/kg/injection, schedule: Q01DX009 (ip), vehicle: other 103 % of control | dose: 50.0 mg/kg/injection, schedule: Q01DX009 (ip), vehicle: other 101 % of control | dose: 100.0 mg/kg/injection, schedule: Q01DX009 (ip), vehicle: other 96 % of control | dose: 200.0 mg/kg/injection, schedule: Q01DX009 (ip), vehicle: other 93 % of control | dose: 400.0 mg/kg/injection, schedule: Q01DX009 (ip), vehicle: other 92 % of control

C=C[C@]1(C)C=C2C(O)CC3C(C)(C)CCC[C@]3(CO)C2CC1 (stereo partly specified)
inactive: [15] 100 % of control | [16] 97 % of control | dose: 240.0 mg/kg/injection, schedule: Q01DX005 (ip), vehicle: saline with Tween-80 96 % of control

O=C(O)c1cc(N=C=S)ccc1-c1c2ccc(=O)cc-2oc2cc(O)ccc12
inactive: dose: 12.5 mg/kg/injection, schedule: Q01DX005 (ip), vehicle: saline + Tween-80 + alcohol 105 % of control | dose: 25.0 mg/kg/injection, schedule: Q01DX005 (ip), vehicle: saline + Tween-80 + alcohol 105 % of control | dose: 50.0 mg/kg/injection, schedule: Q01DX005 (ip), vehicle: saline + Tween-80 + alcohol 105 % of control | [15] 114 % of control | [16] 115 % of control

COC1CC(N)C(OS(C)(=O)=O)C(C)O1 (stereo unspecified)
inactive: dose: 12.5 mg/kg/injection, schedule: Q04DX003 (ip), vehicle: water 99 % of control | dose: 25.0 mg/kg/injection, schedule: Q04DX003 (ip), vehicle: water 99 % of control | dose: 50.0 mg/kg/injection, schedule: Q04DX003 (ip), vehicle: water 114 % of control | dose: 100.0 mg/kg/injection, schedule: Q04DX003 (ip), vehicle: water 114 % of control | dose: 200.0 mg/kg/injection, schedule: Q04DX003 (ip), vehicle: water 105 % of control

CS/C(=N/S(=O)(=O)c1ccccc1)NNC(=S)Nc1ccc(C(C)C)cc1
inactive: [4] 94 % of control | [5] 97 % of control | [6] 97 % of control

O=C(O)C(Cl)(c1ccccc1)C(Cl)c1ccccc1 (stereo unspecified)
inactive: [7] 104 % of control | [8] 95 % of control | [9] 100 % of control
